US20200187502A1, “MICROBIOCIDAL OXADIAZOLE DERIVATIVES” (SYNGENTA PARTICIPATIONS AG, priority 2017, published 2020)

How the values were obtained:
[1] = test system: Glomerella lacenarium (Colletotrichum lacenarium); assay: Fungicidal activity, liquid culture, cucumber preventative (anthracnose); format: cell-based; settings: 20 ppm in the applied formulation, liquid culture in PDB, inhibition of growth measured photometrically 3 to 4 days after application, compared to untreated control, read-out: disease control
Procedure: Mycelia fragments or conidia suspensions of a fungus prepared either freshly from liquid cultures of the fungus or from cryogenic storage, are directly mixed into nutrient broth. DMSO solutions of the test compound (max. 10 mg/ml) are diluted with 0.025% Tween20 by a factor of 50 and 10 μl of this solution is pipetted into a microtiter plate (96-well format). The nutrient broth containing the fungal spores/mycelia fragments is then added to give an end concentration of the tested compound. The test plates are incubated in the dark at 24° C. and 96% relative humidity. The inhibition of fungal growth is determined photometrically after 2 to 7 days, depending on the pathosystem, and percent antifungal activity relative to the untreated check is calculated.
Conidia of the fungus from cryogenic storage are directly mixed into nutrient broth (PDB—potato dextrose broth). After placing a (DMSO) solution of test compound into a microtiter plate (96-well format), the nutrient broth containing the fungal spores is added. The test plates are incubated at 24° C. and the inhibition of growth is measured photometrically 3 to 4 days after application.
The following compounds at 20 ppm in the applied formulation give at least 80% disease control in this test when compared to untreated control under the same conditions, which show extensive disease development.

[2] = test system: Puccinia recondita f. Sp. Tritici; assay: Fungicidal activity, wheat leaf disc preventative (brown rust); format: in vivo; settings: foliar, 200 ppm in the applied formulation, wheat leaf segments cv. Kanzler, compared to untreated control, 7 to 9 days after application, read-out: disease control
Procedure: Leaf disks or leaf segments of various plant species are cut from plants grown in a greenhouse. The cut leaf disks or segments are placed in multiwell plates (24-well format) onto water agar. The leaf disks are sprayed with a test solution before (preventative) or after (curative) inoculation. Compounds to be tested are prepared as DMSO solutions (max. 10 mg/ml) which are diluted to the appropriate concentration with 0.025% Tween20 just before spraying. The inoculated leaf disks or segments are incubated under defined conditions (temperature, relative humidity, light, etc.) according to the respective test system. A single evaluation of disease level is carried out 3 to 14 days after inoculation, depending on the pathosystem. Percent disease control relative to the untreated check leaf disks or segments is then calculated.
Wheat leaf segments cv. Kanzler were placed on agar in multiwell plates (24-well format) and sprayed with the formulated test compound diluted in water. The leaf disks were inoculated with a spore suspension of the fungus 1 day after application. The inoculated leaf segments were incubated at 19° C. and 75% relative humidity (rh) under a light regime of 12 hours light/12 hours darkness in a climate cabinet and the activity of a compound was assessed as percent disease control compared to untreated when an appropriate level of disease damage appears in untreated check leaf segments (7 to 9 days after application).
The following compounds at 200 ppm in the applied formulation give at least 80% disease control in this test when compared to untreated control leaf disks under the same conditions, which show extensive disease development.

## CON(Cc1ccc(-c2noc(C(F)(F)F)n2)s1)C(=O)c1ccccc1Cl [Compound 1.20, 2-chloro-N-methoxy-N-[[5-[5-(trifluoromethyl)-1,2,4-oxadiazol-3-yl]-2-thienyl]methyl]benzamide]
[1]
  inhibition of growth at 20 ppm: ≥ 80%
[2]
  pest or weed control at 200 ppm: ≥ 80%

## O=C(C(=O)N(Cc1ccc(-c2noc(C(F)(F)F)n2)s1)C1CC1)c1cccs1 [Compound 6.59, N-cyclopropyl-2-oxo-2-(2-thienyl)-N-[[5-[5-(trifluoromethyl)-1,2,4-oxadiazol-3-yl]-2-thienyl]methyl]acetamide]
[1]
  inhibition of growth at 20 ppm: ≥ 80%
[2]
  pest or weed control at 200 ppm: ≥ 80%

## COCC(=O)N(C)Cc1ccc(-c2noc(C(F)(F)F)n2)s1 [Compound 4.32, 2-methoxy-N-methyl-N-[[5-[5-(trifluoromethyl)-1,2,4-oxadiazol-3-yl]-2-thienyl]methyl]acetamide]
[1]
  inhibition of growth at 20 ppm: ≥ 80%
[2]
  pest or weed control at 200 ppm: ≥ 80%

## CCN(Cc1ccc(-c2noc(C(F)(F)F)n2)s1)S(=O)(=O)Cc1ccccc1 [Compound 6.13, N-ethyl-1-phenyl-N-[[5-[5-(trifluoromethyl)-1,2,4-oxadiazol-3-yl]-2-thienyl]methyl]methanesulfonamide]
[1]
  inhibition of growth at 20 ppm: ≥ 80%
[2]
  pest or weed control at 200 ppm: ≥ 80%

## CN(C)S(=O)(=O)N(C)Cc1ccc(-c2noc(C(F)(F)F)n2)s1 [Compound 6.29, N-(dimethylsulfamoyl)-N-methyl-1-[5-[5-(trifluoromethyl)-1,2,4-oxadiazol-3-yl]-2-thienyl]methanamine]
[1]
  inhibition of growth at 20 ppm: ≥ 80%
[2]
  pest or weed control at 200 ppm: ≥ 80%

## CON(Cc1ccc(-c2noc(C(F)(F)F)n2)s1)S(=O)(=O)C1CC1 [Compound 1.37, N-methoxy-N-[[5-[5-(trifluoromethyl)-1,2,4-oxadiazol-3-yl]-2-thienyl]methyl]cyclopropanesulfonamide]
[1]
  inhibition of growth at 20 ppm: ≥ 80%
[2]
  pest or weed control at 200 ppm: ≥ 80%

## CS(=O)(=O)N(Cc1ccc(-c2noc(C(F)(F)F)n2)s1)C1CC1 [Compound 6.1, N-cyclopropyl-N-[[5-[5-(trifluoromethyl)-1,2,4-oxadiazol-3-yl]-2-thienyl]methyl]methanesulfonamide]
[1]
  inhibition of growth at 20 ppm: ≥ 80%
[2]
  pest or weed control at 200 ppm: ≥ 80%

## CC(C)(C)C(=O)C(=O)N(Cc1ccc(-c2noc(C(F)(F)F)n2)s1)C1CC1 [Compound 6.55, N-cyclopropyl-3,3-dimethyl-2-oxo-N-[[5-[5-(trifluoromethyl)-1,2,4-oxadiazol-3-yl]-2-thienyl]methyl]butanamide]
[1]
  inhibition of growth at 20 ppm: ≥ 80%
[2]
  pest or weed control at 200 ppm: ≥ 80%

## O=C(C1CCCO1)N(Cc1ccc(-c2noc(C(F)(F)F)n2)s1)OCC(F)F (stereo not drawn) [Compound 5.49, N-(2,2-difluoroethoxy)-N-[[5-[5-(trifluoromethyl)-1,2,4-oxadiazol-3-yl)-2-thienyl]methyl]tetrahydrofuran-2-carboxamide]
[1]
  inhibition of growth at 20 ppm: ≥ 80%
[2]
  pest or weed control at 200 ppm: ≥ 80%

## CN(Cc1ccc(-c2noc(C(F)(F)F)n2)s1)S(=O)(=O)C1CC1 [Compound 6.30, N-methyl-N-[[5-[5-(trifluoromethyl)-1,2,4-oxadiazol-3-yl]-2-thienyl]methyl]cyclopropanesulfonamide]
[1]
  inhibition of growth at 20 ppm: ≥ 80%
[2]
  pest or weed control at 200 ppm: ≥ 80%

## CC(=O)N(Cc1ccc(-c2noc(C(F)(F)F)n2)s1)OCC(F)F [Compound 4.69, N-(2,2-difluoroethoxy)-N-[[5-[5-(trifluoromethyl)-1,2,4-oxadiazol-3-yl]-2-thienyl]methyl]acetamide]
[1]
  inhibition of growth at 20 ppm: ≥ 80%
[2]
  pest or weed control at 200 ppm: ≥ 80%

## O=C(C(=O)N(Cc1ccc(-c2noc(C(F)(F)F)n2)s1)OCC(F)F)c1cccs1 [Compound 6.63, N-(2,2-difluoroethoxy)-2-oxo-2-(2-thienyl)-N-[[5-[5-(trifluoromethyl)-1,2,4-oxadiazol-3-yl]-2-thienyl]methyl]acetamide]
[1]
  inhibition of growth at 20 ppm: ≥ 80%
[2]
  pest or weed control at 200 ppm: ≥ 80%
